3 compounds from article PMC8415707 (Frontiers in Pharmacology, 2021) can be followed below.

Data set [1] has as its system Bacillus subtilis CMCC 63501. Description: microbe, parasite or virus in culture. It is filed as cell-based. The protocol:
(§1) The antimicrobial activity of FM-CATH was measured using two-fold dilution method as reported previously by us ([Ye et al., 2020]). Microorganisms bought from Guangdong Institute of Microbiology were cultured in Muller-Hinton (MH) broth at 37°C to exponential phase and subsequently diluted with fresh MH broth to reach 10^6 CFU/ml of density. An equal volume of microbial inoculums in 96-well plates was incubated with different concentrations of FM-CATH at 37°C for 14 h. The absorbance at 600 nm was measured by a microplate spectrophotometer (Infinite M1000 Pro, Tecan Company, Switzerland) to calculate the minimal inhibitory concentration (MIC) values. […] Ampicillin and polymyxin B were used as positive controls.

For data set [2], the system named is Candida albicans ATCC 10231. The data set is described as follows: microbe, parasite or virus in culture. The format is cell-based. On the procedure:
as §1

Data set [3] has as its system Propionibacterium acnes ATCC 6919. The data set is described as follows: microbe, parasite or virus in culture. It is filed as cell-based. The protocol: as §1
Data set [4] has as its system Pseudomonas aeruginosa ATCC 27853. The data set is described as follows: microbe, parasite or virus in culture. It is filed as cell-based. The protocol:
as §1

The subject of data set [5] is Escherichia coli ATCC 25922. The format is cell-based. The conditions noted are these: ATCC 25922, 14 h. On the procedure:
The antimicrobial activity of FM-CATH was measured using two-fold dilution method as reported previously by us ([Ye et al., 2020]). Microorganisms bought from Guangdong Institute of Microbiology were cultured in Muller-Hinton (MH) broth at 37°C to exponential phase and subsequently diluted with fresh MH broth to reach 10^6 CFU/ml of density. An equal volume of microbial inoculums in 96-well plates was incubated with different concentrations of FM-CATH at 37°C for 14 h. The absorbance at 600 nm was measured by a microplate spectrophotometer (Infinite M1000 Pro, Tecan Company, Switzerland) to calculate the minimal inhibitory concentration (MIC) values.

A further data set has as its system A549. The data set is described as follows: Cytotoxicity by MTT. It is filed as cell-based. The note with it: A549, 24 h, 2.5-40 μM tested, n = 3; read-out: IC50 (proliferation, MTT).
The subject of the next data set is HepG2. Description: Cytotoxicity by MTT. The format is cell-based. The conditions noted are these: HepG2, 24 h, 2.5-40 μM tested, n = 3; read-out: IC50 (proliferation, MTT).
Another data set concerns MDCK. Description: Cytotoxicity by MTT. It is filed as cell-based. The conditions noted are these: 24 h, 2.5-40 μM tested, n = 3, read-out: IC50 (proliferation, MTT).
The subject of another data set is MH-S. The note with it: 24 h, 2.5-40 μM.
The test system of a further data set is MDA-MB-231. The conditions noted are these: MDA-MB-231, 24 h, 2.5-40 μM.
For the next data set, the system named is mouse erythrocytes. The conditions noted are these: 40 μM, 2% mouse erythrocyte suspension in TBS, room temperature, 2 h, absorbance 540 nm.
For data set [6], the system named is Staphylococcus aureus ATCC 25923. Description: Antimicrobial assay (MIC, two-fold dilution). The format is cell-based. The note with it: MH broth, 10^6 CFU/ml, 37°C, 14 h, absorbance 600 nm. The protocol: as §1
The nature of data set [7]: Isothermal titration calorimetry, binding to LPS. Also noted: species or system Escherichia coli O55:B5. The conditions noted are these: ITC, 1 mM peptide titrated into 50 μM LPS, 50 mM PBS pH 7.2, 25°C, single-site model. The protocol:
ITC assay was carried out to investigate the thermodynamics of interactions between peptides and LPS or LTA using MicroCal PEAQ-ITC (Malvern; United Kingdom). 50 mM of PBS (pH 7.2) was used to prepare stock solutions of peptide, LPS, and LTA. […] In LTA binding experiment, 100 μM LTA in the syringe was titrated into 280 μL of 50 μM FM-CATH in the cell with the condition described above. Instrument was operated in high feedback mode. After the heats derived from dilution were subtracted, the equilibrium disassociation constant (K D) and the enthalpy change (ΔH) were analyzed by fitting to a single-site binding model using the MicroCal Origin software. The Gibb’s free energy change (ΔG) and entropy change (ΔS) were obtained from the basic thermodynamic equations, respectively.

The mark [8] stands for this setting: two-fold dilution, MH broth, 10^6 CFU/ml, 37°C, 14 h, absorbance 600 nm.

Broadly, the Kd is the concentration at which binding is half-saturated.

No end group written: not given here.

Method for A549: (§2) Three tumor cell lines (A549, HepG2, and MDA-MB-231) and two normal mammalian cell lines (MH-S and MDCK) were seeded in 96-well plates at a density of 5,000 cells per well. […] The supernatant was removed and DMSO was added before the absorbance at 490 nm was measured.
Method for HepG2: as §2
Method for MDA-MB-231: as §2
Method for MDCK: as §2
Method for MH-S: as §2
Method for mouse erythrocytes: Hemolytic assay was carried out with fresh blood from mouse heart as reported in our previous article with minor modification ([Chai et al., 2021]). […] 1% Triton X-100 and PBS were applied as the positive and negative control, respectively. The absorbance of the supernatant at 540 nm was measured with a microplate spectrophotometer. The hemolysis rate was calculated using the following formula: percentage hemolysis = (ODsample—ODPBS)/(ODTriton—ODPBS) × 100%.

As to `CC1(C)S[C@@H]2[C@H](NC(=O)[C@H](N)c3ccccc3)C(=O)N2[C@H]1C(=O)O` [Ampicillin], the MIC in [1] (Bacillus subtilis, CMCC63501, 14 h) was above 100 µM; in [2] (Candida albicans, ATCC10231, 14 h) it was above 100 µM; in [3] (Cutibacterium acnes, ATCC6919, 14 h), above 100 µM; in data set [4] (Pseudomonas aeruginosa, ATCC27853, 14 h), above 100 µM.
Turning to LKTKALNKLKQKLQAVGNLIGSVIKG [FM-CATH], the MIC was found to be 12.5 µM in [1] (CMCC 63501, 14 h); 6.25 µM in [2] (ATCC 10231, 14 h); 6.25 µM in [3] (ATCC 6919, 14 h); 50 µM in data set [4] (ATCC 27853, 14 h); 6.25 µM in data set [5]. Further, the IC50 with A549 was 11.7 µM; in the data set on HepG2 it was 33.4 µM; in the data set with MDCK, 337 µM. The “cytotoxicity (MTT)” value with MH-S and in the data set on MDA-MB-231 was “very low cytotoxicity” throughout. Also, the hemolytic activity result with mouse erythrocytes is reported as “almost no hemolytic activity”.
Polymyxin B: the MIC in data set [1] (setting [8]) is 25 µM; in data set [2] (setting [8]), 25 µM; in data set [3] (setting [8]), 6.25 µM; in data set [4] (setting [8]), 50 µM; in [6], above 100 µM. This compound also returned an equilibrium dissociation constant (Kd) in data set [7] of 0.414 µM. Besides, in data set [7], the “∆H” value stood at 5.9 ± 0.156 kcal/mol.
